*1 amine or outer side, *2 acyl side, *3 side chain or, on linkers, in order; H or OH if unused. Where a SMILES comes first, the peptide text is derived from it. [ ]: non-standard residue; d: D form. The star is where a group is joined. ξ: configuration not given here. X4 = O=C(N[C@@H](CCCCN*)C(=O)O)N[C@@H](C[C@@H](F)C(=O)O)C(=O)O; ξLys(Nα-CO-ξAad) = O=C(O)CCCC(NC(=O)NC(CCCCN*)C(=O)O)C(=O)O; Butanoyl(4-(4-NO2Ph)) = O=C(CCCc1ccc([N+](=O)[O-])cc1)*; DOTA = O=C(O)CN1CCN(CC(=O)O)CCN(CC(=O)*)CCN(CC(=O)O)CC1; Ala(9-anthryl) = N[C@@H](Cc1c2ccccc2cc2ccccc12)C(=O)O; Butanoyl(4-(4-MeO-phenyl)) = COc1ccc(CCCC(=O)*)cc1; ξAla(9-anthryl) = NC(Cc1c2ccccc2cc2ccccc12)C(=O)O; X1 = O=C(C1CCC(CN[*:1])CC1)[*:2]; ξK = NCCCCC(N)C(=O)O
Legend:
PSMA = molecular target: T1, PSMA (Homo sapiens, UniProt Q04609); assay: In vitro PSMA competitive binding assay, LNCaP cells, [18F]DCFPyL radioligand; conditions: [18F]DCFPyL 0.1 nM, read-out: PSMA binding affinity (Ki)
T1 construct: endogenous in cells; host or cells: LNCaP cells
Procedure: Inhibition constants (Ki) to PSMA were measured by in vitro competition binding assays using [^18F]DCFPyL as the radioligand. LNCaP cells which were plated onto a 24-well poly-D-lysine coated plate for 48 h (400,000/well). Growth medium was removed and replaced with HEPES buffered saline (50 mM HEPES, pH 7.5, 0.9% sodium chloride). After 1 h, [^18F]DCFPyL (0.1 nM) was added to each well (in triplicate) containing varied concentrations ([…]) of tested compounds The assay mixtures were incubated for 1 h at 37° C. with gentle agitation followed by two washes with cold HEPES buffered saline. A trypsin solution (0.25%, 400 μL) was then added to each well to harvest the cells. Radioactivity was measured by gamma counting and Ki values calculated using the ‘one site—fit Ki’ built-in model in Prism 8 (GraphPad).

[1] = tested on: NRG-mice bearing LNCaP tumors; assay: Biodistribution (and PET/SPECT imaging) in NRG-mice bearing LNCaP tumors; assay type: in vivo; conditions: Avg
In short: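 LNCaP xenografts (~10 million cells, left dorsal flank) grown 4-6 weeks to 200-600 mm^3 in NRG mice. Tail-vein injection of 4-6 MBq ^68Ga or 18.5 MBq ^177Lu tracer under isoflurane; CT then 10-min static PET or 1-h SPECT. Biodistribution by gamma counting of weighed organs, expressed as %ID/g.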

T1 sequence (Q04609 whole entry): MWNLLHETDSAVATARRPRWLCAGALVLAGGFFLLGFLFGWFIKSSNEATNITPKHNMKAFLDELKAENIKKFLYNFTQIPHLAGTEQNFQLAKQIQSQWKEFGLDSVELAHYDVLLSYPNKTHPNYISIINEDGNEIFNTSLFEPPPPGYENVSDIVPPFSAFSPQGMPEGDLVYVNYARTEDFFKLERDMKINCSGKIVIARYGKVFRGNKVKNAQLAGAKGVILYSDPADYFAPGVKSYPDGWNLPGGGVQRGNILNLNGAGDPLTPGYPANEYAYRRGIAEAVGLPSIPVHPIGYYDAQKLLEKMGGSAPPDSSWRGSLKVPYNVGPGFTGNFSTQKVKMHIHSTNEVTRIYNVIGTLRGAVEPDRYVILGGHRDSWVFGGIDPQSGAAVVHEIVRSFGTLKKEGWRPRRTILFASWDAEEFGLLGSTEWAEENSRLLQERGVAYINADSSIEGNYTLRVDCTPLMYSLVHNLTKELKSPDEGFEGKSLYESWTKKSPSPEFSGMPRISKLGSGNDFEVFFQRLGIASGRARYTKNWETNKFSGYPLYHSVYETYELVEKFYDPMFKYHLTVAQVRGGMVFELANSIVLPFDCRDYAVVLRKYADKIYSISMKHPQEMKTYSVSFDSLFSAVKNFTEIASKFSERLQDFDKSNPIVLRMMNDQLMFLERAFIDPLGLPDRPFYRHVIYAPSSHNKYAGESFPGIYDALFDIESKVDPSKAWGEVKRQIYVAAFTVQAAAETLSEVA

## COc1ccc(CCCC(=O)NCC(=O)N[C@@H](CCCCNC(=O)COCCOCCNC(=O)CN2CCN(CC(N)=O)CCN(CC(=O)O)CCN(CC(=O)O)CC2)C(=O)NCC2CCC(C(=O)N[C@@H](Cc3c4ccccc4cc4ccccc34)C(=O)NCCCC[C@H](NC(=O)N[C@@H](CCCC(=O)O)C(=O)O)C(=O)O)CC2)cc1 (stereo partly drawn) [CCZ02005]
PSMA
  Ki: 2.08 nM

## COc1ccc(CCCC(=O)NCC(=O)N[C@@H](CCCCNC(=O)CN2CCN(CC(=O)O)CCN(CC(=O)O)CCN(CC(=O)O)CC2)C(=O)NCC(=O)NCC2CCC(C(=O)N[C@@H](Cc3c4ccccc4cc4ccccc34)C(=O)NCCCC[C@H](NC(=O)N[C@@H](C[C@@H](F)C(=O)O)C(=O)O)C(=O)O)CC2)cc1 (stereo partly drawn) [CCZ02008] ({Butanoyl(4-(4-MeO-phenyl))}-GK(DOTA)G[X1][Ala(9-anthryl)]-X4)
PSMA
  Ki: 0.48 ± 0.1 nM

## O=C(O)CCC[C@H](NC(=O)N[C@@H](CCCCNC(=O)[C@H](Cc1c2ccccc2cc2ccccc12)NC(=O)C1CCC(NC(=O)CN2CCN(CC(=O)O)CCN(CC(=O)O)CCN(CC(=O)O)CC2)CC1)C(=O)O)C(=O)O (stereo partly drawn) [CCZ02012]
PSMA
  Ki: 1.67 nM

## O=C([O-])CN1CCN(CC(=O)[O-])CCN(CC(=O)NCCCCC(NC(=O)CNC(=O)CCCc2ccc([N+](=O)[O-])cc2)C(=O)NCC(=O)NCC2CCC(C(=O)NC(Cc3c4ccccc4cc4ccccc34)C(=O)NCCCCC(NC(=O)NC(CCCC(=O)O)C(=O)O)C(=O)O)CC2)CCN(CC(=O)[O-])CC1.[225Ac+3] (stereo not drawn) [^225Ac-CCZ02017] ({Butanoyl(4-(4-NO2Ph))}-G[ξK](DOTA)G[X1][ξAla(9-anthryl)]-{ξLys(Nα-CO-ξAad)})
[1]; 3 h p.i.
  Biodistribution: Adrenal gland: 3.61 % ID/g
  Biodistribution: Blood: 9.83 % ID/g
  Biodistribution: Bone: 1.24 % ID/g
  Biodistribution: Brain: 0.19 % ID/g
  Biodistribution: Fat: 1.96 % ID/g
  Biodistribution: Heart: 2.27 % ID/g
  Biodistribution: Intestine: 1.02 % ID/g
  Biodistribution: LNCaP tumor: 23.63 % ID/g
  Biodistribution: Lacrimal gland: 0.92 % ID/g
  Biodistribution: Liver: 1.90 % ID/g
  Biodistribution: Lungs: 4.93 % ID/g
  Biodistribution: Muscle: 0.80 % ID/g
  Biodistribution: Pancreas: 1.14 % ID/g
  Biodistribution: Salivary gland: 3.37 % ID/g
  Biodistribution: Seminal gland: 2.26 % ID/g
  Biodistribution: Spleen: 1.15 % ID/g
  Biodistribution: Stomach: 0.47 % ID/g
  Biodistribution: Testes: 2.73 % ID/g
  Biodistribution: Thyroid: 1.72 % ID/g
  Biodistribution: Urine: 142.80 % ID/g
  Biodistribution: kidney: 14.29 % ID/g
[1]; 24 h p.i.
  Biodistribution: Adrenal gland: 0.59 % ID/g
  Biodistribution: Blood: 0.28 % ID/g
  Biodistribution: Bone: 0.30 % ID/g
  Biodistribution: Brain: 0.03 % ID/g
  Biodistribution: Fat: 0.13 % ID/g
  Biodistribution: Heart: 0.25 % ID/g
  Biodistribution: Intestine: 0.15 % ID/g
  Biodistribution: LNCaP tumor: 42.31 % ID/g
  Biodistribution: Lacrimal gland: 0.32 % ID/g
  Biodistribution: Liver: 0.68 % ID/g
  Biodistribution: Lungs: 0.58 % ID/g
  Biodistribution: Muscle: 0.06 % ID/g
  Biodistribution: Pancreas: 0.09 % ID/g
  Biodistribution: Salivary gland: 0.35 % ID/g
  Biodistribution: Seminal gland: 0.15 % ID/g
  Biodistribution: Spleen: 0.50 % ID/g
  Biodistribution: Stomach: 0.20 % ID/g
  Biodistribution: Testes: 0.38 % ID/g
  Biodistribution: Thyroid: 0.33 % ID/g
  Biodistribution: Urine: 4.30 % ID/g
  Biodistribution: kidney: 6.87 % ID/g
[1]; 72 h p.i.
  Biodistribution: Adrenal gland: 24.11 % ID/g
  Biodistribution: Blood: 0.01 % ID/g
  Biodistribution: Bone: 0.34 % ID/g
  Biodistribution: Brain: 0.02 % ID/g
  Biodistribution: Fat: 0.40 % ID/g
  Biodistribution: Heart: 0.16 % ID/g
  Biodistribution: Intestine: 0.06 % ID/g
  Biodistribution: LNCaP tumor: 54.12 % ID/g
  Biodistribution: Lacrimal gland: 1.39 % ID/g
  Biodistribution: Liver: 0.51 % ID/g
  Biodistribution: Lungs: 0.19 % ID/g
  Biodistribution: Muscle: 0.04 % ID/g
  Biodistribution: Pancreas: 0.09 % ID/g
  Biodistribution: Salivary gland: 0.33 % ID/g
  Biodistribution: Seminal gland: 0.03 % ID/g
  Biodistribution: Spleen: 0.93 % ID/g
  Biodistribution: Stomach: 0.06 % ID/g
  Biodistribution: Testes: 0.33 % ID/g
  Biodistribution: Thyroid: 0.22 % ID/g
  Biodistribution: Urine: 1.33 % ID/g
  Biodistribution: kidney: 3.62 % ID/g
[1]; 144 h p.i.
  Biodistribution: Adrenal gland: 0.31 % ID/g
  Biodistribution: Blood: 0.01 % ID/g
  Biodistribution: Bone: 0.23 % ID/g
  Biodistribution: Brain: 0.02 % ID/g
  Biodistribution: Fat: 0.07 % ID/g
  Biodistribution: Heart: 0.14 % ID/g
  Biodistribution: Intestine: 0.06 % ID/g
  Biodistribution: LNCaP tumor: 71.25 % ID/g
  Biodistribution: Lacrimal gland: 0.65 % ID/g
  Biodistribution: Liver: 0.71 % ID/g
  Biodistribution: Lungs: 0.13 % ID/g
  Biodistribution: Muscle: 0.02 % ID/g
  Biodistribution: Pancreas: 0.14 % ID/g
  Biodistribution: Salivary gland: 0.21 % ID/g
  Biodistribution: Seminal gland: 0.04 % ID/g
  Biodistribution: Spleen: 0.65 % ID/g
  Biodistribution: Stomach: 0.05 % ID/g
  Biodistribution: Testes: 0.29 % ID/g
  Biodistribution: Thyroid: 0.23 % ID/g
  Biodistribution: Urine: 0.55 % ID/g
  Biodistribution: kidney: 1.95 % ID/g
[1]; 240 h p.i.
  Biodistribution: Adrenal gland: 0.53 % ID/g
  Biodistribution: Blood: 0.02 % ID/g
  Biodistribution: Bone: 0.57 % ID/g
  Biodistribution: Brain: 0.02 % ID/g
  Biodistribution: Fat: 0.13 % ID/g
  Biodistribution: Heart: 0.16 % ID/g
  Biodistribution: Intestine: 0.06 % ID/g
  Biodistribution: LNCaP tumor: 123.67 % ID/g
  Biodistribution: Lacrimal gland: 0.19 % ID/g
  Biodistribution: Liver: 1.49 % ID/g
  Biodistribution: Lungs: 0.18 % ID/g
  Biodistribution: Muscle: 0.08 % ID/g
  Biodistribution: Pancreas: 0.06 % ID/g
  Biodistribution: Salivary gland: 0.32 % ID/g
  Biodistribution: Seminal gland: 0.06 % ID/g
  Biodistribution: Spleen: 1.14 % ID/g
  Biodistribution: Stomach: 0.08 % ID/g
  Biodistribution: Testes: 0.27 % ID/g
  Biodistribution: Thyroid: 0.23 % ID/g
  Biodistribution: Urine: 0.41 % ID/g
  Biodistribution: kidney: 2.24 % ID/g

From patent US20250186627A1, “RADIOLABELED COMPOUNDS TARGETING THE PROSTATE-SPECIFIC MEMBRANE ANTIGEN” (PROVINCIAL HEALTH SERVICES AUTHORITY, priority 2022, published 2025)
